Measurements published in PubChem BioAssay (NCI).
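Five concentrations, 48 hours, 96-well plates. The concentration for 50% growth inhibition is given as GI50. The concentration for full growth arrest is given as TGI.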

Columns and labels:
Assay in all cases: DTP human tumour cell line panel, 48 h
CCRF-CEM leukemia = test system: CCRF-CEM leukemia
SNB-75 CNS = test system: SNB-75 CNS
SK-MEL-28 melanoma = test system: SK-MEL-28 melanoma
IGROV1 ovarian = test system: IGROV1 ovarian
MDA-MB-231 breast = test system: MDA-MB-231 breast
PC-3 prostate = test system: PC-3 prostate
SK-MEL-2 melanoma = test system: SK-MEL-2 melanoma
RXF 393 renal = test system: RXF 393 renal
A498 renal = test system: A498 renal
SW-620 colon = test system: SW-620 colon

Row | SMILES | TGI (CCRF-CEM leukemia) | GI50 (SNB-75 CNS) | TGI (SNB-75 CNS) | GI50 (SK-MEL-28 melanoma) | TGI (SK-MEL-28 melanoma) | GI50 (IGROV1 ovarian) | TGI (IGROV1 ovarian) | GI50 (MDA-MB-231 breast) | TGI (MDA-MB-231 breast) | GI50 (PC-3 prostate) | TGI (PC-3 prostate) | GI50 (SK-MEL-2 melanoma) | TGI (SK-MEL-2 melanoma) | GI50 (RXF 393 renal) | TGI (RXF 393 renal) | GI50 (A498 renal) | TGI (A498 renal) | GI50 (SW-620 colon) | TGI (SW-620 colon) | GI50 (CCRF-CEM leukemia)
1 | Cc1cc(NNC(=O)c2ccccc2O)nc(Nc2nc3ccccc3o2)n1 | 11.8 µM | 3.49 µM | 17.4 µM | 1.64 µM | 13.3 µM | 1.3 µM | 12.2 µM | 0.71 µM | 16.2 µM | 0.912 µM | 13.7 µM | 2.24 µM | 13.3 µM | 1.69 µM | 7.3 µM | 1.53 µM | 3.25 µM | 3.03 µM | 17.8 µM | –
2 | C=C1CCC2C3(C)COC(c4ccc(Cl)cc4)OC3CCC2(C)C1/C=C/C1=CCOC1=O (centres undefined) | 12.6 µM | 12.1 µM | 41.5 µM | 21.7 µM | > 100 µM | 50 µM | > 100 µM | 6.68 µM | > 100 µM | 1.67 µM | 69.9 µM | 17.9 µM | > 100 µM | 12 µM | 58.2 µM | 2.18 µM | 31.5 µM | > 100 µM | > 100 µM | 1.56 µM
3 | CCOC(=O)c1cc(-c2ccc(OC)c(OC)c2)[nH]c1N/N=C/c1c(Cl)cccc1Cl | > 100 µM | 1.85 µM | 5.94 µM | 1.12 µM | > 100 µM | 2.45 µM | 30.4 µM | 2.9 µM | 8.84 µM | 2.14 µM | 19 µM | 7.28 µM | 48.6 µM | 1.91 µM | 9.77 µM | 1.03 µM | 7.77 µM | 2.5 µM | > 44.5 µM | 2.22 µM
4 | CC(=O)NC(CCCCN(Cc1ccccc1)C(=O)N(CCCl)N=O)C(=O)NCc1ccccc1 (centres undefined) | > 84.3 µM | – | 63.8 µM | – | > 100 µM | – | 60 µM | – | 47.9 µM | – | > 100 µM | – | 62.2 µM | – | 51.3 µM | – | > 100 µM | – | > 70.7 µM | –
5 | N#Cc1c(N)nc(N2CCSCC2)c(C#N)c1-c1ccc(O)cc1 | > 100 µM | 10.9 µM | 30.4 µM | 15.5 µM | 35 µM | 32.6 µM | > 100 µM | 12.4 µM | 27.5 µM | 19.8 µM | > 100 µM | 51 µM | > 100 µM | 35.3 µM | > 100 µM | 13.4 µM | 29.8 µM | 27.5 µM | > 100 µM | 26.4 µM
6 | O=C(Nc1cccnc1)c1ccc2ccc3ccc(C(=O)Nc4cccnc4)nc3c2n1 | > 100 µM | 0.273 µM | > 100 µM | 0.324 µM | > 100 µM | 0.125 µM | > 100 µM | 0.226 µM | > 100 µM | 0.158 µM | > 100 µM | 0.911 µM | > 100 µM | 0.11 µM | 0.342 µM | 0.214 µM | 0.553 µM | 0.0781 µM | > 100 µM | 0.169 µM
7 | COc1cc(-c2ccc(NC(=O)NC3CC3)c(OC)c2)ccc1NC(=O)NC1CC1 | > 100 µM | 12.1 µM | > 85.8 µM | > 29.3 µM | > 100 µM | 5.83 µM | 52.9 µM | 11.6 µM | > 100 µM | 9.01 µM | > 100 µM | 35.5 µM | > 100 µM | 1.16 µM | 4.42 µM | 19.2 µM | > 100 µM | 5.39 µM | > 100 µM | 4.34 µM
8 | O=C1C(=O)N(c2cccc(C(F)(F)F)c2)C(=O)C(=O)C1c1nc2ccccc2s1 | 65.1 µM | – | > 100 µM | – | > 100 µM | – | > 100 µM | – | > 100 µM | – | > 100 µM | – | > 100 µM | – | > 100 µM | – | > 100 µM | – | > 100 µM | –
9 | CCN(CC)CC(C)(C)C(=O)/C=C/c1ccc(/C=C/C(=O)C(C)(C)CN(CC)CC)cc1 | 0.31 µM | – | 3.44 µM | – | 2.28 µM | – | 7.04 µM | – | 0.756 µM | – | 1.51 µM | – | 3.32 µM | – | 0.928 µM | – | 3.49 µM | – | 0.523 µM | –
10 | CC(O)CN1c2ccccc2Sc2ccc(Cl)cc21 (centres undefined) | > 10 µM | – | > 10 µM | – | > 10 µM | – | > 10 µM | – | > 10 µM | – | > 10 µM | – | > 10 µM | – | > 10 µM | – | > 10 µM | – | > 10 µM | –
